From patent publication US20230218572A1, “COMPOSITIONS AND METHODS FOR IMPROVED MESENCHYMAL STEM CELL THERAPY” (Versitech Limited, priority 2021, published 2023)
Entries after “also recorded” stand apart in the source; their conditions may differ.

What was measured:
[1] = test system: CD55 mRNA; test: CD55 mRNA expression of hMSCs by RT-qPCR; format: cell-based, human; conditions: for CD55 mRNA expression of hMSCs compared to untreated control: AT-, BM-, UC-hMSC, Erlotinib 2, 5, 10 μM or atorvastatin 2, 5, 25, 50 μM, within 24 hours, normalized to GADPH; for Dose dependence of CD55 upregulation in hMSCs: Erlotinib 2-10 μM, atorvastatin 2-50 μM; for Expression of CD55 on hMSC vs untreated control (mRNA or protein level not specified): drug treatment of hMSC
Description: (§1) FIG. 9 is a bar graph of CD55 mRNA expression of hMSCs in presence of atorvastatin, showing % Normalized to GADPH (0-25) for each MSC group Adipose Tissue (AT; red), Bone Marrow (BM; blue), and Umbilical Cord (UC; green), respectively, in the presence of 0 μM (untreated control) 2 μM, 5 μM, 25 μM, and 50 μM atorvastatin.
as §1, with “10” for “9”, “Erlotinib,” for “atorvastatin,”, “μM,” for “μM, 25 μM,”, “10” for “50”, “Erlotinib.” for “atorvastatin.”
(§2) The expression of CD55 in hMSC was then validated by RT-qPCR and flow cytometry.
hMSC were treated with Erlotinib, which is an EGFR inhibitor, on different dosages within 24 hours, […]

[2] = test system: CD55 surface protein; test: CD55 surface protein expression on hMSCs by flow cytometry; format: cell-based, human; conditions: AT-, BM-, UC-hMSC, 5 μM Atr or 5 μM Erl, 24 hr
Description: FIG. 11 is a bar graph of CD55 surface expression on hMSCs following 24 hr in presence of Atorvastatin (Atr) or Erlotinib (Erl), showing % of CD55+ cells (0-100) for each MSC group Adipose Tissue (AT; red), Bone Marrow (BM; blue), and Umbilical Cord (UC; green), respectively, in the presence of nothing (untreated control) 5 μM Atr, or 5 μM Erl.
as §2

Row | SMILES | CD55 mRNA expression of hMSCs compared to untreated control [1] | Dose dependence of CD55 upregulation in hMSCs [1] | Expression of CD55 on hMSC vs untreated control (mRNA or protein level not specified) [1] | CD55 surface protein level on hMSCs compared with untreated control [2]
1 | CC(C)c1c(C(=O)Nc2ccccc2)c(-c2ccccc2)c(-c2ccc(F)cc2)n1CC[C@@H](O)C[C@@H](O)CC(=O)O [atorvastatin, Atorvastatin] | increase the expression of CD55 of hMSCs in both mRNA and protein level | there was not a similar dose dependent relationship | significantly increased of CD55 expression; also recorded: significantly higher expression of CD55 than untreated control | increase the expression of CD55 of hMSCs in both mRNA and protein level
2 | C#Cc1cccc(Nc2ncnc3cc(OCCOC)c(OCCOC)cc23)c1 [erlotinib, Erlotinib] | increased CD55 expression with significance difference in mRNA level compared to untreated control | dose dependent manner | significantly increased of CD55 expression; also recorded: significantly higher expression of CD55 than untreated control | significantly upregulated compared with untreated control
